# Data published in patent publication US12398108B2, “Compounds, compositions, and methods for treating diseases” (Drexel University, priority 2017, dated 2025).
# Columns and labels:
# [1] = tested on: Human Androgen Receptor; test: Indigo Biosciences Human Androgen Receptor Reporter Assay System; assay type: cell-based
# Experimental: The compound's activity was also measured for its ability to inhibit androgen receptor reporter activity. The assay that was used was Indigo Biosciences Human Androgen Receptor Reporter Assay System. […] Based upon these activities, the compounds are expected to have anti-tumor effects.
# [2] = molecular target: Sigma1 receptor (Homo sapiens, UniProt Q99720); test: binding to Sigma1 receptor
# [3] = tested on: breast cancer; test: administration to a subject who has breast cancer; assay type: in vivo
# Experimental: 1-(2,2-Dimethyl-3-(4-(trifluoromethyl)phenoxy)propyl)-3-(pyrimidin-5-yl)guanidine is administered to a subject who has breast cancer. The tumor growth is inhibited and the tumor size is reduced.
# [4] = administration to a subject in pain; assay type: in vivo
# Experimental: 1-(2,2-Dimethyl-3-(4-(trifluoromethyl)phenoxy)propyl)-3-(pyrimidin-5-yl)guanidine is administered to a subject in pain. The subject's pain is alleviated.
# Chain of Sigma1 receptor (Q99720 whole entry, species assumed): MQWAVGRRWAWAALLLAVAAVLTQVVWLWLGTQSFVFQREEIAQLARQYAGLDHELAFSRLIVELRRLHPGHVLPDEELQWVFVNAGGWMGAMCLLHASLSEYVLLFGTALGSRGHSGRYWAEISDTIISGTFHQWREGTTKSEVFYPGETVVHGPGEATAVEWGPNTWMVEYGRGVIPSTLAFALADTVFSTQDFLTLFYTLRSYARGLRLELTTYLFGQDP
structure (smiles),measurement,setting,value
"CC(C)(CNC(=N)Nc1cncnc1)COc1ccc(C(F)(F)F)cc1 [1-(2,2-Dimethyl-3-(4-(trifluoromethyl)phenoxy)propyl)-3-(pyrimidin-5-yl)guanidine]",ability to inhibit androgen receptor reporter activity,[1],active
same,binding to Sigma1 receptor,[2],nanomolar range
same,tumor growth,[3],inhibited
same,tumor size,[3],reduced
same,subject's pain,[4],alleviated
